We go through 3 compounds from patent US9233948B2, “Pharmaceutical compositions comprising N-(4-(2-amino-3-chloropyridin-4-yloxy)-3-fluorophenyl)-4-ethoxy-1-(4-fluorophenyl)-2-oxo-1,2-dihydropyridine-3-carboxamide” (Bristol-Myers Squibb Company, priority 2010, dated 2016).

The structures appear in SMILES notation. Converted amounts (≈) assume the structure as drawn. Read-outs that look alike come from different tables or passages of the source.

A short description of data set [1]: Pharmacokinetics of capsules of Form N-1 with two particle sizes. Further details: species or system dogs. Particulars: dog, in vivo, 10 mg/kg, 10 mpk; for bioavailability: oral, compared to IV data, read-out: Absolute Bioavailability; for AUC / Cmax / Tmax: po. As to the method: The microsuspension of Example 7, tablets, and hard gelatin capsules containing the phosphate salt of Compound (I) were dosed orally at 10 mg/kg in dogs pretreated with pentagastrin. The resulting exposures were compared to an absolute bioavailability calculated by comparison to an IV dose in the same animals. Capsules were prepared comprising Compound (I), Form N-1 with two different particle sizes.

A short description of data set [2]: Aqueous solubility of crystalline forms of Compound (I). In kind it is physicochemical. The text has this:
However, in the presence of an aqueous medium, the neat crystalline Form N-1 can convert to the crystalline sesquihydrate Form H1.5-2. […] One method to increase the bioavailability of compounds in a suspension is to increase the surface area of the particles in contact with the aqueous medium, which can be achieved by decreasing the particle size. However, reductions in particle size below diameters of approximately one micron requires specialized milling and dispersion techniques to prepare, stabilize, and sterilize the sub-micron suspensions. Desired is an aqueous suspension of Compound (I) in Form N-1 that has sufficient resistance to conversion to the sesquihydrate Form H1.5-2 to allow oral administration.

Data set [3] in a line: Chemical and physical stability testing of Form N-1. Format: physicochemical. Particulars: several different temperature and humidity conditions.
Data set [4] can be described thus: Chemical stability of tablets after accelerated storage. In kind it is physicochemical. As to conditions: control. As to the method:
The chemical stability of the 25 mg tablet of Example 9 was evaluated after accelerated storage at various temperatures and humidity conditions for periods up to one month.

Setting [5] is: Particle Diameter D90 10 micron.
Setting [6] is: Particle Diameter D90 70 micron.

One may read the bioavailability as dose-corrected exposure relative to a reference, in per cent. As usually defined, the AUC is concentration integrated over time. By Cmax is commonly meant the maximum level reached in the sampled fluid or tissue. For orientation: Tmax means the time at which the peak concentration occurs. In general, solubility refers to the dissolved amount per volume that the medium holds. On to `CCOc1ccn(-c2ccc(F)cc2)c(=O)c1C(=O)Nc1ccc(Oc2ccnc(N)c2Cl)c(F)c1` [Form N-1, N-(4-(2-Amino-3-chloropyridin-4-yloxy)-3-fluorophenyl)-4-ethoxy-1-(4-fluorophenyl)-2-oxo-1,2-dihydropyridine-3-carboxamide], for which, in data set [1] (setting [5]), the bioavailability is roughly 32%, the area under the curve (AUC) came to 90.2 ± 5.5 µM·h, the Cmax amounted to 15 ± 2.7 µM and the Tmax was determined as 6 h. In data set [1] (setting [6]), the bioavailability came to 12%, the AUC was 33.3 ± 8.4 µM·h, the Cmax worked out at 6.9 ± 1.1 µM and the time of peak concentration (Tmax) came to 2 h. In data set [2] (aqueous medium, aqueous buffer, pH 7.4 and room temperature), this compound returned a solubility of roughly 0.25 µg/mL (≈ 0.487 µM). In data set [3], the “chemical and physical stability” value was “suitable chemical and physical stability”.

`CCOc1ccn(-c2ccc(F)cc2)c(=O)c1C(=O)Nc1ccc(Oc2ccnc(N)c2Cl)c(F)c1` [Form H1.5-2, N-(4-(2-Amino-3-chloropyridin-4-yloxy)-3-fluorophenyl)-4-ethoxy-1-(4-fluorophenyl)-2-oxo-1,2-dihydropyridine-3-carboxamide]: the “aqueous solubility compared to Form N-1” value in data set [2] was “lower aqueous solubility compared to Form N-1”.

Take `CCOc1ccn(-c2ccc(F)cc2)c(=O)c1C(=O)Nc1ccc(Oc2ccnc(N)c2Cl)c(F)c1` [Compound (I), N-(4-(2-Amino-3-chloropyridin-4-yloxy)-3-fluorophenyl)-4-ethoxy-1-(4-fluorophenyl)-2-oxo-1,2-dihydropyridine-3-carboxamide]: in data set [4], the “Total Impurity” value was 0.13%.
